According to US4115385A, “Antibacterial 3-(5-tetrazolyl) penam compounds” (Pfizer Inc., priority 1977, dated 1978):
≈ marks a conversion by molar mass, not a printed value. Read-outs that look alike come from different tables or passages of the source.

Tested on: Streptococcus pyogenes
Assay: In vitro minimum inhibitory concentration (MIC) vs. Strep. pyogenes
Assay type: cell-based
Conditions: Streptococcus pyogenes
Procedure, shortened: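 Broth inoculated with bacteria and test antibiotic, incubated overnight and read visually; MIC is the lowest concentration preventing turbidity. Test preparations also contain some of the corresponding tetrazole tautomer.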

[1] = read-out: MIC vs. Strep. pyogenes
[2] = Table II, two-fold serial dilution, Brain-Heart Infusion broth, overnight, read-out: MIC vs. Strep. pyogenes
[3] = Table IV, read-out: MIC vs. Strep. pyogenes

Row | Compound | MIC [1] | further results
1 | CC1(C)S[C@@H]2[C@H](NC(=O)Cc3ccc(OCCN=[N+]=[N-])cc3)C(=O)N2[C@H]1c1nn[nH]n1 [2-(4-[2-azidoethoxy]phenyl)acetyl, 6-(2-[4-(2-Azidoethoxy)phenyl]acetamido)-2,2-dimethyl-3-(5-tetrazolyl)penam] | < 0.1 µg/mL | 
2 | CC1(C)S[C@@H]2[C@H](NC(=O)[C@H](NC(=O)CNC(=N)c3cccc(C#N)c3)c3ccccc3)C(=O)N2[C@H]1c1nnn[nH]1 |  | MIC [2]: 6.25 µg/mL (≈ 11.2 µM)
3 | CC1(C)S[C@@H]2[C@H](NC(=O)[C@H](NC(=O)CCNC(=O)c3ccc(Cl)cc3)c3ccccc3)C(=O)N2[C@H]1c1nnn[nH]1 | < 0.1 µg/mL | 
4 | CC1(C)S[C@@H]2[C@H](NC(=O)Cc3cccc(OCCN)c3)C(=O)N2[C@H]1c1nn[nH]n1 [2-(3-[2-aminoethoxy]phenyl)acetyl, 6-(2-[3-(2-Aminoethoxy)phenyl]acetamido)-2,2-dimethyl-3-(5-tetrazolyl)penam] | < 0.1 µg/mL | 
5 | CCN=C(NCC)SCC(=O)NC(=O)N[C@@H](C(=O)N[C@@H]1C(=O)N2[C@@H]1SC(C)(C)[C@@H]2c1nn[nH]n1)c1ccccc1 [6-(D-2-[3-(2-(N,N'-diethylguanylthio]acetyl)ureido]-2-phenylacetamido)-2,2-dimethyl-3-(5-tetrazolyl)penam] |  | MIC [2]: 0.004 µg/mL (≈ 0.00679 µM)
6 | CC1(C)S[C@@H]2[C@H](NC(=O)[C@H](NC(=O)NC(=O)CSC(=N)N)c3ccccc3)C(=O)N2[C@H]1c1nn[nH]n1 [6-(D-2-[3-(2-[Guanylthio]acetyl)ureido]-2-phenylacetamido)-2,2-dimethyl-3-(5-tetrazol-5-yl)penam] |  | MIC [2]: 0.004 µg/mL (≈ 0.00751 µM)
7 | CNC(=O)NCC(=O)N[C@@H](C(=O)N[C@@H]1C(=O)N2[C@@H]1SC(C)(C)[C@@H]2c1nnn[nH]1)c1ccccc1 | < 0.1 µg/mL | 
8 | CC(=N)NCC(=O)N[C@@H]1C(=O)N2[C@@H]1SC(C)(C)[C@@H]2c1nnn[nH]1 [2-(acetamidino)acetyl] | < 0.1 µg/mL | 
9 | CC1(C)S[C@@H]2[C@H](NC(=O)[C@H](NC(=O)NC(=O)c3ccco3)c3ccccc3)C(=O)N2[C@H]1c1nn[nH]n1 [D-2-(3-[2-furoyl]ureido)-2-phenylacetyl, 6-(D-2-[3-(2-Furoyl)ureido]-2-phenylacetamido)-2,2-dimethyl-3-(5-tetrazolyl)penam] | < 0.1 µg/mL | 
10 | CC1(C)S[C@@H]2[C@H](NC(=O)[C@H](NC(=O)CN)c3ccccc3)C(=O)N2[C@H]1c1nn[nH]n1 [D-2-(2-aminoacetamido)-2-phenylacetyl, 6-(D-2-[2-Aminoacetamido]-2-phenylacetamido)-2,2-dimethyl-3-(5-tetrazolyl)penam] | < 0.1 µg/mL | 
11 | CC1(C)S[C@@H]2[C@H](NC(=O)[C@H](NC(=O)Cc3ccc(N)cc3)c3ccccc3)C(=O)N2[C@H]1c1nn[nH]n1 [6-(D-2-[2-(4-Aminophenyl)acetamido]-2-phenylacetamido)-2,2-dimethyl-3-(5-tetrazolyl)penam] | < 0.1 µg/mL | 
12 | CNC(=O)NCCC(=O)N[C@@H](C(=O)N[C@@H]1C(=O)N2[C@@H]1SC(C)(C)[C@@H]2c1nnn[nH]1)c1ccccc1 | < 0.1 µg/mL | 
13 | CC1(C)S[C@@H]2[C@H](NC(=O)[C@H](NC(=O)NC(=N)N)c3ccccc3)C(=O)N2[C@H]1c1nnn[nH]1 [D-2-(3-guanylureido)-2-phenylacetyl, 6-(D-2-[3-Guanylureido]-2-phenylacetamido)-2,2-dimethyl-3-(5-tetrazolyl)penam] | < 0.1 µg/mL | 
14 | CC1(C)S[C@@H]2[C@H](NC(=O)[C@H](NC(=O)Cc3ccc([N+](=O)[O-])cc3)c3ccccc3)C(=O)N2[C@H]1c1nn[nH]n1 [6-(D-2-[2-(4-nitrophenyl)acetamido]-2-phenylacetamido)-2,2-dimethyl-3-(5-tetrazolyl)penam] | < 0.1 µg/mL | 
15 | CC1(C)S[C@@H]2[C@H](NC(=O)Cc3ccccc3CC(=O)O)C(=O)N2[C@H]1c1nnn[nH]1 [2-(2-[carboxymethyl]phenyl)acetyl, 6-(2-[2-(Carboxymethyl)phenyl]acetamido)-2,2-dimethyl-3-(5-tetrazolyl)penam] |  | MIC [2]: 0.2 µg/mL (≈ 0.48 µM)
16 | CC1(C)S[C@@H]2[C@H](NC(=O)[C@H](NC(=O)CCNC(=N)c3cc(Br)cc(Br)c3)c3ccccc3)C(=O)N2[C@H]1c1nnn[nH]1 | < 0.1 µg/mL | 
17 | COc1ccc(C(=O)NCC(=O)N[C@@H](C(=O)N[C@@H]2C(=O)N3[C@@H]2SC(C)(C)[C@@H]3c2nnn[nH]2)c2ccccc2)cc1 | 0.1 µg/mL (≈ 0.177 µM) | 
18 | CCC(=O)NCC(=O)N[C@@H](C(=O)N[C@@H]1C(=O)N2[C@@H]1SC(C)(C)[C@@H]2c1nn[nH]n1)c1ccccc1 | < 0.1 µg/mL | 
19 | CC1(C)S[C@@H]2[C@H](NC(=O)Cc3ccccc3CN=[N+]=[N-])C(=O)N2[C@H]1c1nnn[nH]1 [2-(2-azidomethylphenyl)acetyl, 6-(2-[2-Azidomethylphenyl]acetamido)-2,2-dimethyl-3-(5-tetrazolyl)penam] | ≤ 0.1 µg/mL | 
20 | CN(C)C=N[C@@H]1C(=O)N2[C@@H]1SC(C)(C)[C@@H]2c1nnn[nH]1 [6-([Dimethylamino]methyleneamino)-2,2-dimethyl-3-(5-tetrazolyl)penam] |  | MIC [3]: 12.5 µg/mL (≈ 42.3 µM)
21 | CC1(C)S[C@@H]2[C@H](NC(=O)[C@H](NC(=O)CNC(=N)c3cc[n+]([O-])cc3)c3ccccc3)C(=O)N2[C@H]1c1nnn[nH]1 | < 0.1 µg/mL | 
22 | CC1(C)S[C@@H]2[C@H](NC(=O)[C@H](NC(=O)NC(=O)c3ccccc3)c3ccccc3)C(=O)N2[C@H]1c1nn[nH]n1 [2-(3-benzoylureido)-2-phenylacetyl] | < 0.1 µg/mL | 

Row | Compound | MIC [1] | further results
23 | CC1(C)S[C@@H]2[C@H](NC(=O)[C@H](NC(=O)Nc3ccccc3)c3ccccc3)C(=O)N2[C@H]1c1nnn[nH]1 [D-2-(3-phenylureido)-2-phenylacetyl] | < 0.1 µg/mL | 
24 | CC1(C)S[C@@H]2[C@H](NC(=O)[C@H](NC(=O)CNC(=N)c3nc4ccccc4s3)c3ccccc3)C(=O)N2[C@H]1c1nnn[nH]1 | < 0.1 µg/mL | 
25 | CC1(C)S[C@@H]2[C@H](NC(=O)[C@H](NC(=O)NC(=O)c3cc(Br)cc(Br)c3)c3ccccc3)C(=O)N2[C@H]1c1nn[nH]n1 | < 0.1 µg/mL | 
26 | CC(=O)NC(=O)N[C@@H](C(=O)N[C@@H]1C(=O)N2[C@@H]1SC(C)(C)[C@@H]2c1nn[nH]n1)c1ccccc1 [2-(3-acetylureido)-2-phenylacetyl] | < 0.1 µg/mL | 
27 | CC1(C)S[C@@H]2[C@H](NC(=O)Cc3ccccc3CN)C(=O)N2[C@H]1c1nnn[nH]1 [2-(o-[aminomethyl]phenyl)acetyl, 6-[2-[o-(aminomethyl)phenyl]acetamido]-2,2-dimethyl-3-(5-tetrazolyl)penam] | < 0.1 µg/mL | 
28 | CC1(C)S[C@@H]2[C@H](NC(=O)[C@H](NC(=O)CCNC(=N)Cc3ccc(Cl)cc3)c3ccccc3)C(=O)N2[C@H]1c1nnn[nH]1 |  | MIC [2]: 1.56 µg/mL (≈ 2.62 µM)
29 | CC1(C)S[C@@H]2[C@H](NC(=O)[C@H](NC(=O)NC(=O)C3CC3)c3ccccc3)C(=O)N2[C@H]1c1nn[nH]n1 | < 0.1 µg/mL | 
30 | CC1(C)S[C@@H]2[C@H](NC(=O)[C@H](NC(=O)CNC(=O)NC(=N)N)c3ccc(O)cc3)C(=O)N2[C@H]1c1nnn[nH]1 [6-(D-2-[2-(3-[guanyl]ureido)acetamido]-2-[4-hydroxyphenyl]acetamido)-2,2-dimethyl-3-(5-tetrazolyl)penam] |  | MIC [2]: 0.004 µg/mL (≈ 0.00753 µM)
31 | CC1(C)S[C@@H]2[C@H](NC(=O)[C@H](NC(=O)CNC(=N)c3ncccn3)c3ccccc3)C(=O)N2[C@H]1c1nnn[nH]1 |  | MIC [2]: 0.78 µg/mL (≈ 1.46 µM)
32 | CC1(C)S[C@@H]2[C@H](NC(=O)C(c3ccccc3)S(=O)(=O)O)C(=O)N2[C@H]1c1nnn[nH]1 (some centres unmarked) [2-sulfo-2-phenylacetyl, 6-(2-Sulfo-2-phenylacetamido)-2,2-dimethyl-3-(5-tetrazolyl)penam] |  | MIC [2]: 200 µg/mL (≈ 456 µM)
33 | CC1(C)S[C@@H]2[C@H](NC(=O)[C@H](NC(=S)Nc3ccccc3)c3ccccc3)C(=O)N2[C@H]1c1nnn[nH]1 [D-2-(3-phenylthioureido)-2-phenylacetyl, 6-(D-2-[3-Phenylthioureido]-2-phenylacetamide)-2,2-dimethyl-3-(5-tetrazol)penam] | < 0.1 µg/mL | 
34 | CN(C)C=N[C@@H](C(=O)N[C@@H]1C(=O)N2[C@@H]1SC(C)(C)[C@@H]2c1nnn[nH]1)c1ccccc1 [6-(D-2-[Dimethylaminomethyleneamino]-2-phenylacetamido)-2,2-dimethyl-3-(5-tetrazolyl)penam] | < 0.1 µg/mL | 
35 | CC1(C)S[C@@H]2[C@H](NC(=O)[C@H](NC(=O)c3ccc(NC(=N)N)cc3)c3ccccc3)C(=O)N2[C@H]1c1nn[nH]n1 [6-(D-2-[p-Guanidinobenzamido]-2-phenylacetamido)-2,2-dimethyl-3-(5-tetrazolyl)penam] |  | MIC [2]: 1.56 µg/mL (≈ 2.92 µM)
36 | CC(=O)NCC(=O)N[C@@H](C(=O)N[C@@H]1C(=O)N2[C@@H]1SC(C)(C)[C@@H]2c1nn[nH]n1)c1ccccc1 | < 0.1 µg/mL | 
37 | Cc1cc(C)cc(C(=N)NCC(=O)N[C@@H]2C(=O)N3[C@@H]2SC(C)(C)[C@@H]3c2nnn[nH]2)c1 [2-(3,5-dimethylbenzamidino)acetyl] |  | MIC [2]: 0.39 µg/mL (≈ 0.91 µM)
38 | CC(C)(C)C(=O)OCn1nnc([C@@H]2N3C(=O)[C@@H](NC(=O)[C@H](N)c4ccc(O)cc4)[C@H]3SC2(C)C)n1 [6-(D-2-Amino-2-[p-hydroxyphenyl]acetamido)-2,2-dimethyl-3-(2-[pivaloyloxymethyl]tetrazol-5-yl)penam] |  | MIC (Examples, read-out: MIC against Strep. pyogenes): 0.39 µg/mL (≈ 0.774 µM); MIC [3]: 0.39 µg/mL (≈ 0.774 µM)
39 | CCOC(=O)CC(=O)N[C@@H](C(=O)N[C@@H]1C(=O)N2[C@@H]1SC(C)(C)[C@@H]2c1nnn[nH]1)c1ccccc1 | < 0.1 µg/mL | 
40 | CC1(C)S[C@@H]2[C@H](NC(=O)[C@H](NC(=O)CCNC(=S)Nc3ccccc3)c3ccccc3)C(=O)N2[C@H]1c1nnn[nH]1 |  | MIC [2]: 1.56 µg/mL (≈ 2.69 µM)
41 | CC1(C)S[C@@H]2[C@H](NC(=O)Cc3ccccc3OCCN)C(=O)N2[C@H]1c1nn[nH]n1 [2-(o-[2-aminoethoxy]phenyl)acetyl, 6-(2-[2-(2-Aminoethoxy)phenyl]acetamido)-2,2-dimethyl-3-(5-tetrazolyl)penam] | < 0.1 µg/mL | 
42 | CC1(C)S[C@@H]2[C@H](NC(=O)[C@H](NC(=O)CNC(=O)NC(=N)NCC3CCCCC3)c3ccccc3)C(=O)N2[C@H]1c1nn[nH]n1 |  | MIC [2]: 0.2 µg/mL (≈ 0.327 µM)
43 | CC1(C)S[C@@H]2[C@H](NC(=O)[C@H](NC(=O)CNC(=O)c3ccccc3)c3ccccc3)C(=O)N2[C@H]1c1nn[nH]n1 [6-(2-D-[2-Benzamidoacetamido]-2-phenylacetamido)-2,2-dimethyl-3-(5-tetrazolyl)penam] | < 0.1 µg/mL | 
